From patent US10533164B2, “Mutant sialidase having trans-sialidase activity for use in production of sialylated glycans” (priority 2013, dated 2020)

B1: Tr6 P98A: Tr6 mutant, reversion of mutation P98A (protein)
chain: LAPGSSRVELFKRKNSTVPFEESNGTIRERVVHSFRLPTIVNVDGVMVAIADARYETSFDNSFIETAVKYSVDDGATWNTQIAIKNSRASSVSRVVDATVIVKGNKLYILVGSFNKTRNYWTQHRDGSDWEPLLVVGEVTKSAANGKTTATISWGKPVSLKPLFPAEFDGILTKEFVGGVGAAIVASNGNLVYPVQIADMGGRVFTKIMYSEDDGNTWKFAEGRSKFGCSEPAVLEWEGKLIINNRVDYNRRLVYESSDMGKTWVEALGTLSHVWTNSPTSNQPDCQSSFVAVTIEGKRVMLFTHPLNLKGRWMRDRLHLWMTDNQRIFDVGQISIGDENSGYSSVLYKDDKLYSLHEINTNDVYSLVFVRLIGELQLMKSVVRTWKEEDNHLASICTPVVPATPPSKGACGAAVPTAGLVGFLSHSANGSVWEDVYRCVDANVANAERVPNGLKFNGVGGGAVWPVARQGQTRRYQFANYRFTLVATVTIDELPKGTSPLLGAGLEGPGDAKLLGLSYDKNRQWRPLYGAAPASPTGSWELHKKYHVVLTMADRQGSVYVDGQPLAGSGNTVVRGATLPDISHFYIGGPRSKGAPTDSRVTVTNVVLYNRRLNSSEIRTLFLSQDMIGTDGGAGTAA
B2: Tr6 Y249G: Tr6 mutant, reversion of mutation Y249G (protein)
chain: LAPGSSRVELFKRKNSTVPFEESNGTIRERVVHSFRLPTIVNVDGVMVAIADARYETSFDNSFIETAVKYSVDDGATWNTQIAIKNSRASSVSRVVDPTVIVKGNKLYILVGSFNKTRNYWTQHRDGSDWEPLLVVGEVTKSAANGKTTATISWGKPVSLKPLFPAEFDGILTKEFVGGVGAAIVASNGNLVYPVQIADMGGRVFTKIMYSEDDGNTWKFAEGRSKFGCSEPAVLEWEGKLIINNRVDGNRRLVYESSDMGKTWVEALGTLSHVWTNSPTSNQPDCQSSFVAVTIEGKRVMLFTHPLNLKGRWMRDRLHLWMTDNQRIFDVGQISIGDENSGYSSVLYKDDKLYSLHEINTNDVYSLVFVRLIGELQLMKSVVRTWKEEDNHLASICTPVVPATPPSKGACGAAVPTAGLVGFLSHSANGSVWEDVYRCVDANVANAERVPNGLKFNGVGGGAVWPVARQGQTRRYQFANYRFTLVATVTIDELPKGTSPLLGAGLEGPGDAKLLGLSYDKNRQWRPLYGAAPASPTGSWELHKKYHVVLTMADRQGSVYVDGQPLAGSGNTVVRGATLPDISHFYIGGPRSKGAPTDSRVTVTNVVLYNRRLNSSEIRTLFLSQDMIGTDGGAGTAA
B3: Tr6 D363E: Tr6 sialidase mutant with amino acid change D363E (protein)
chain: LAPGSSRVELFKRKNSTVPFEESNGTIRERVVHSFRLPTIVNVDGVMVAIADARYETSFDNSFIETAVKYSVDDGATWNTQIAIKNSRASSVSRVVDPTVIVKGNKLYILVGSFNKTRNYWTQHRDGSDWEPLLVVGEVTKSAANGKTTATISWGKPVSLKPLFPAEFDGILTKEFVGGVGAAIVASNGNLVYPVQIADMGGRVFTKIMYSEDDGNTWKFAEGRSKFGCSEPAVLEWEGKLIINNRVDYNRRLVYESSDMGKTWVEALGTLSHVWTNSPTSNQPDCQSSFVAVTIEGKRVMLFTHPLNLKGRWMRDRLHLWMTDNQRIFDVGQISIGDENSGYSSVLYKDDKLYSLHEINTNEVYSLVFVRLIGELQLMKSVVRTWKEEDNHLASICTPVVPATPPSKGACGAAVPTAGLVGFLSHSANGSVWEDVYRCVDANVANAERVPNGLKFNGVGGGAVWPVARQGQTRRYQFANYRFTLVATVTIDELPKGTSPLLGAGLEGPGDAKLLGLSYDKNRQWRPLYGAAPASPTGSWELHKKYHVVLTMADRQGSVYVDGQPLAGSGNTVVRGATLPDISHFYIGGPRSKGAPTDSRVTVTNVVLYNRRLNSSEIRTLFLSQDMIGTDGGAGTAA

What was measured:
[1] = test system: Lactobacillus acidophilus (NCFM, ATCC 700396); assay: Bacterial growth on sialylated glycans; type: cell-based; conditions: L. acidophilus; substrate 10 g/L in MRS-medium; average of 3 replicates
[2] = test system: Clostridium perfringens (ATCC 13124); type: cell-based; conditions: C. perfringens; substrate 10 g/L in MRS-medium; average of 3 replicates
[3] = test system: Bifidobacterium longum (BI-05, DGCC 9917); assay: Bacterial growth on sialylated glycans; type: cell-based; conditions: B. longum 9917; substrate 10 g/L in MRS-medium; average of 3 replicates
[4] = test system: Bifidobacterium longum longum (DGCC 232); assay: Bacterial growth on sialylated glycans; type: cell-based; conditions: B. longum 232; for Area under the growth curve: substrate 10 g/L in MRS-medium, average of 3 replicates
[5] = test system: Bifidobacterium lactis (HN019, DGCC2013); assay: Bacterial growth on sialylated glycans; type: cell-based; conditions: B. lactis; substrate 10 g/L in MRS-medium; average of 3 replicates
[6] = test system: Bifidobacterium longum infantis (DGCC 2238); assay: Bacterial growth on sialylated glycans; type: cell-based; conditions: B. infantis 2238; substrate 10 g/L in MRS-medium; average of 3 replicates
[7] = test system: Bifidobacterium longum infantis (DGCC 233); assay: Bacterial growth on sialylated glycans; type: cell-based; conditions: B. infantis 233; for Area under the growth curve: substrate 10 g/L in MRS-medium, average of 3 replicates
[8] = test system: Bifidobacterium longum infantis (DGCC 1497); assay: Bacterial growth on sialylated glycans; type: cell-based; conditions: B. infantis 1497; for Area under the growth curve: substrate 10 g/L in MRS-medium, average of 3 replicates
[9] = test system: group of probiotic strains; assay: Bacterial growth on sialylated glycans, probiotic strains as a group; type: cell-based
[10] = Trans-sialidase activity assay (fluorescence-based); type: biochemical; conditions: for trans-sialidase activity relative to Tr6 parent (product formation, FIG. 4): mutants from shake flask cultures, cGMP donor, MU-Gal acceptor
Protocol: The invention provides a method for assaying the mutant trans-sialidase of the invention, that may for example be obtained by recombinant expression. Example 2.1 describes a fluorescence-based assay employing cGMP-bound sialic acid (for example 1 mM) as donor substrate and methylumbelliferyl-β-D-galactopyranoside (MU-Gal) as the acceptor (for example 0.5 mM), where the reaction is performed in a 50 mM phosphate-citrate (pH 6) at 30° C.
Trans-sialidase activity was assayed as described previously but with the following modifications. Reactions were performed in 50 mM phosphate-citrate (pH 6) at 30° C. using 2.9 μg/mL enzyme. The assay employed 1 mM cGMP-bound sialic acid as donor substrate and MU-Gal as the acceptor. MU-Gal at 0.5 mM was the highest final concentration to be tested due to its low solubility in aqueous solution. A solution of 87 mM MU-Gal in DMSO was diluted to 2 mM in 50 mM phosphate-citrate buffer (pH 6) immediately before preparing the reactions. When assaying crude enzyme preparations from P. pastoris, a background signal was observed, and attributed to cleavage of MU-Gal by endogenous β-galactosidase. This background signal could be removed by washing the column eight times with 440 μL of 5 mM HCl after sample application without desorption of the sialylated product and this was therefore done routinely.
To assess the performance of the mutant enzymes, they were produced by recombinant expression in P. pastoris, transformed with the respective mutant gene, by growth in shake flask cultures. The trans-sialidase activity of the expressed mutant enzymes was measured with a fluorescence-based assay using cGMP as sialic acid donor and methylumbelliferyl-β-D-galactopyranoside (MU-Gal) as acceptor (FIG. 4). As the detected product is a measure of both the trans-sialidase activity (product formation) and hydrolase activity (product degradation) the assay provides an effective screen for mutants having a higher trans-sialidase to hydrolase activity ratio.

[11] = Sialidase (hydrolase) activity assay; type: biochemical; conditions: substrate pNP-Neu5Ac; compared with Tr6
Protocol: Sialidase activity was measured in a reaction containing 50 mM phosphate-citrate buffer (pH 7), 0.75 mM pNP-NeuAc and 3 μg/mL sialidase enzyme. Reactions were initiated by addition of substrate and followed spectrophotometrically at 410 nm at 30° C. pH 7 was chosen to enable detection of released pNP in a continuous assay. Reaction rates were normalized as % of the activity of the Tr6 parent enzyme. For measurement of hydrolysis of natural substrates, the assay was performed with either 1 mM 3′-sialyllactose, 1 mM 6′-sialyllactose or 1 mM cGMP-bound sialic acid in 50 mM phosphate-citrate buffer (pH 5) using 1 μg/mL enzyme. Reactions were started by addition of enzyme and stopped by adding H2SO4 to 45 mM final concentration. Quantification of free sialic acid was performed using a 2-thiobarbituric acid assay with the modification that butanol extraction was substituted with mixing with dimethyl sulfoxide (DMSO).

Molecule	Area under the growth curve [1] [OD600 × min]	Area under the growth curve [2] [OD600 × min]	Area under the growth curve [3] [OD600 × min]	growth promotion (in words) [4]	Area under the growth curve [4] [OD600 × min]	Area under the growth curve [5] [OD600 × min]	Area under the growth curve [6] [OD600 × min]	growth promotion (in words) [7]	Area under the growth curve [7] [OD600 × min]	growth promotion (in words) [8]	Area under the growth curve [8] [OD600 × min]	growth promotion (in words) [9]	trans-sialidase activity relative to Tr6 parent (product formation, FIG. 4) [10]	hydrolase activity (FIG. 5A) [11]	trans-sialylated product yield (maximum product formation, FIG. 5B) ([10]; purified enzyme from 5 L fermentor, time course, compared with Tr6)
SA-α-Fuc [S-fucose]	188 ± 18	811 ± 48	114 ± 15	promoted growth	192 ± 20	192 ± 27	285 ± 15	promoted growth	71 ± 6	promoted growth	149 ± 2				
SA-α-Gal-1,4-β-Fru [S-lactulose]	128 ± 2	541 ± 17	34 ± 14		134 ± 19	122 ± 18	269 ± 20		109 ± 20		34 ± 2				
CC(=O)NC1C(O)CC(OC2C(O)C(CO)OC(OCC3OC(O)C(O)C(O)C3O)C2O)(C(=O)O)OC1C(O)C(O)CO (stereo not drawn) [S-melibiose, SA-α-Gal-1,6-α-Glc]	192 ± 4		70 ± 8		104 ± 17		302 ± 2		14 ± 6			did not appear to promote growth			
SA-α-Glc-1,4-α-Glc [S-maltose]	193 ± 12	844 ± 99	101 ± 6		122 ± 31	102 ± 8	158 ± 24		30 ± 4			did not appear to promote growth			
B1													reduction in trans-sialidase activity		
B2													reduction in trans-sialidase activity		
B3													enhanced trans-sialidase activity	reduced hydrolase activity	similarly low product formation profile as Tr6
